Reference: patent publication US20100143462A1, “NEW CARBAMAZEPHINE FORMULATIONS HAVING INPROVED SOLUBILITY” (NUTRALEASE LTD., priority 2004, published 2010)

Assays:
[1] = Solubilization capacity of microemulsion / concentrate for Carbamazepine; assay type: physicochemical; settings: 50 wt % aqueous phase (water:PG 1:1), dilution line 7:3, D-limonene:ethanol 1:1, FIG. 2
Protocol: When solubilizing a drug in a microemulsion system, the solubilization capacity should be characterized. […] For the 7:3 dilution line (FIG. 2), the 5 gr oil phase concentrate comprises 0.75 gr of D-limonene, 0.75 gr EtOH (each being 15 wt %), and 3.5 gr Tween 60 (70 wt %). The 5 gr oil concentrate is then diluted in an aqueous phase of water:propylene glycol (1:1). For the 8:2 dilution line (FIG. 3) the 5 gr oil phase concentrate comprises 0.5 gr of D-limonene, 0.5 gr EtOH (each being 10 wt %), and 4 gr Tween 60 (80 wt %). The 5 gr oil concentrate is then diluted in an aqueous phase of water:propylene glycol (1:1). For the 9:1 dilution line (FIG. 4) the 5 gr oil phase concentrate comprises 0.25 gr of D-limonene, 0.25 gr EtOH (each being 5 wt %), and 4 gr Tween 60 (90 wt %). The 5 gr oil concentrate is then diluted in an aqueous phase of water:propylene glycol (1:1).
Preparations of the microemulsions and microemulsion concentrate were done in the following manner. The surfactant and the oil phase were mixed at the appropriate ratio, 7:3, 8:2 and 9:1 respectively, to form the concentrate. The solubilization of the drug in the concentrate was determined by solubilizing it to form clear solutions, until the maximal amount was reached. […]

[2] = following a single oral dose; cited from earlier work

For `NC(=O)N1c2ccccc2C=Cc2ccccc21` [Carbamazepine, 5H-Dibenz(b,f)azepine-5-carboxamide], the “solubilization capacity of microemulsion (solubilized Carbamazepine)” value [1] is listed as 3.76% and the “elimination half-life of unchanged Carbamazepine in the plasma” value [2] is listed as “approximately 36 hours”.
